According to PubChem BioAssay (NCI):
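Where inhibition never reached the appropriate level, the endpoint shown equals the highest concentration tested. Otherwise, values were interpolated linearly from a five-concentration, 48-hour dose response in 96-well plates. GI50 marks 50% less growth. Definition used: TGI = concentration required for complete inhibition of growth.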

Legend:
Assay in all cases: growth of human tumour cells (NCI), 48 h
ACHN renal = tested on: ACHN renal
NCI-H460 lung = tested on: NCI-H460 lung
A549 NSCLC = tested on: A549 NSCLC
EKVX NSCLC = tested on: EKVX NSCLC
OVCAR-8 ovarian = tested on: OVCAR-8 ovarian
MDA-MB-435 = tested on: MDA-MB-435
RPMI-8226 leukemia = tested on: RPMI-8226 leukemia
COLO 205 colon = tested on: COLO 205 colon
SW-620 colon = tested on: SW-620 colon
LOX IMVI melanoma = tested on: LOX IMVI melanoma
SK-MEL-2 melanoma = tested on: SK-MEL-2 melanoma
BT-549 breast = tested on: BT-549 breast
HCC-2998 colon = tested on: HCC-2998 colon
TK-10 renal = tested on: TK-10 renal
SNB-19 CNS = tested on: SNB-19 CNS
SF-268 CNS = tested on: SF-268 CNS
PC-3 prostate = tested on: PC-3 prostate
UO-31 renal = tested on: UO-31 renal
HCT-15 colon = tested on: HCT-15 colon
HCT-116 colon = tested on: HCT-116 colon
K-562 leukemia = tested on: K-562 leukemia
NCI-H522 lung = tested on: NCI-H522 lung
A498 renal = tested on: A498 renal
RXF 393 renal = tested on: RXF 393 renal
NCI-H23 lung = tested on: NCI-H23 lung
DU-145 prostate = tested on: DU-145 prostate
HS 578T breast = tested on: HS 578T breast
T-47D breast = tested on: T-47D breast
MDA-MB-231 breast = tested on: MDA-MB-231 breast
NCI-H226 lung = tested on: NCI-H226 lung
SN12C renal = tested on: SN12C renal
M14 melanoma = tested on: M14 melanoma
786-0 renal = tested on: 786-0 renal
OVCAR-3 ovarian = tested on: OVCAR-3 ovarian
OVCAR-5 ovarian = tested on: OVCAR-5 ovarian
UACC-62 melanoma = tested on: UACC-62 melanoma
SR leukemia = tested on: SR leukemia
HL-60(TB) leukemia = tested on: HL-60(TB) leukemia
SF-295 CNS = tested on: SF-295 CNS
CAKI-1 renal = tested on: CAKI-1 renal
SK-OV-3 ovarian = tested on: SK-OV-3 ovarian
SK-MEL-28 melanoma = tested on: SK-MEL-28 melanoma
KM12 colon = tested on: KM12 colon
HOP-62 NSCLC = tested on: HOP-62 NSCLC
SNB-75 CNS = tested on: SNB-75 CNS
NCI/ADR-RES ovarian = tested on: NCI/ADR-RES ovarian
IGROV1 ovarian = tested on: IGROV1 ovarian
SK-MEL-5 melanoma = tested on: SK-MEL-5 melanoma
U251 CNS = tested on: U251 CNS
MALME-3M melanoma = tested on: MALME-3M melanoma
OVCAR-4 ovarian = tested on: OVCAR-4 ovarian
MDA-MB-468 breast = tested on: MDA-MB-468 breast
MCF7 breast = tested on: MCF7 breast
SF-539 CNS = tested on: SF-539 CNS
CCRF-CEM leukemia = tested on: CCRF-CEM leukemia
MOLT-4 leukemia = tested on: MOLT-4 leukemia
HOP-92 NSCLC = tested on: HOP-92 NSCLC
HT29 colon = tested on: HT29 colon

Cc1ccc(Nc2nnc(-c3c[nH]c4ccccc34)o2)c(C)c1
GI50 (ACHN renal): 564 nM
TGI (ACHN renal): 30600 nM
GI50 (NCI-H460 lung): 443 nM
TGI (NCI-H460 lung): 13600 nM
GI50 (A549 NSCLC): 868 nM
TGI (A549 NSCLC): > 100000 nM
GI50 (EKVX NSCLC): 455 nM
TGI (EKVX NSCLC): > 73100 nM
GI50 (OVCAR-8 ovarian): 463 nM
TGI (OVCAR-8 ovarian): 9100 nM
GI50 (MDA-MB-435): 46 nM
TGI (MDA-MB-435): 250 nM
GI50 (RPMI-8226 leukemia): 424 nM
TGI (RPMI-8226 leukemia): > 39100 nM
GI50 (COLO 205 colon): 447 nM
TGI (COLO 205 colon): 2950 nM
GI50 (SW-620 colon): 325 nM
TGI (SW-620 colon): > 100000 nM
GI50 (LOX IMVI melanoma): 478 nM
TGI (LOX IMVI melanoma): 7430 nM
GI50 (SK-MEL-2 melanoma): 302 nM
TGI (SK-MEL-2 melanoma): 13300 nM
GI50 (BT-549 breast): 435 nM
TGI (BT-549 breast): 19900 nM
GI50 (HCC-2998 colon): 625 nM
TGI (HCC-2998 colon): 4560 nM
GI50 (TK-10 renal): 4030 nM
TGI (TK-10 renal): > 100000 nM
GI50 (SNB-19 CNS): 512 nM
TGI (SNB-19 CNS): 43700 nM
GI50 (SF-268 CNS): 714 nM
TGI (SF-268 CNS): 30900 nM
GI50 (PC-3 prostate): 583 nM
TGI (PC-3 prostate): > 100000 nM
GI50 (UO-31 renal): 530 nM
TGI (UO-31 renal): 57000 nM
GI50 (HCT-15 colon): 170 nM
TGI (HCT-15 colon): 16700 nM
GI50 (HCT-116 colon): 645 nM
TGI (HCT-116 colon): 29200 nM
GI50 (K-562 leukemia): 80.1 nM
TGI (K-562 leukemia): > 100000 nM
GI50 (NCI-H522 lung): 163 nM
TGI (NCI-H522 lung): 1210 nM
GI50 (A498 renal): 18200 nM
TGI (A498 renal): 56600 nM
GI50 (RXF 393 renal): 375 nM
TGI (RXF 393 renal): 7440 nM
GI50 (NCI-H23 lung): 445 nM
TGI (NCI-H23 lung): 12700 nM
GI50 (DU-145 prostate): 664 nM
TGI (DU-145 prostate): > 45300 nM
GI50 (HS 578T breast): 333 nM
TGI (HS 578T breast): 9170 nM
GI50 (T-47D breast): 325 nM
TGI (T-47D breast): > 100000 nM
GI50 (MDA-MB-231 breast): 620 nM
TGI (MDA-MB-231 breast): 15900 nM
GI50 (NCI-H226 lung): 1450 nM
TGI (NCI-H226 lung): > 100000 nM
GI50 (SN12C renal): 522 nM
TGI (SN12C renal): 16500 nM
GI50 (M14 melanoma): 324 nM
TGI (M14 melanoma): 16000 nM
GI50 (786-0 renal): 768 nM
TGI (786-0 renal): 11300 nM
GI50 (OVCAR-3 ovarian): 307 nM
TGI (OVCAR-3 ovarian): 3530 nM
GI50 (OVCAR-5 ovarian): 756 nM
TGI (OVCAR-5 ovarian): 24200 nM
GI50 (UACC-62 melanoma): 277 nM
TGI (UACC-62 melanoma): 12200 nM
GI50 (SR leukemia): 141 nM
TGI (SR leukemia): > 100000 nM
GI50 (HL-60(TB) leukemia): 274 nM
TGI (HL-60(TB) leukemia): 17800 nM
GI50 (SF-295 CNS): 236 nM
TGI (SF-295 CNS): 3240 nM
GI50 (CAKI-1 renal): 483 nM
TGI (CAKI-1 renal): 38900 nM
GI50 (SK-OV-3 ovarian): 502 nM
TGI (SK-OV-3 ovarian): 23800 nM
GI50 (SK-MEL-28 melanoma): 639 nM
TGI (SK-MEL-28 melanoma): 31800 nM
GI50 (KM12 colon): 435 nM
TGI (KM12 colon): 14500 nM
GI50 (HOP-62 NSCLC): 475 nM
TGI (HOP-62 NSCLC): 24300 nM
GI50 (SNB-75 CNS): 255 nM
TGI (SNB-75 CNS): 968 nM
GI50 (NCI/ADR-RES ovarian): 109 nM
TGI (NCI/ADR-RES ovarian): 484 nM
GI50 (IGROV1 ovarian): 569 nM
TGI (IGROV1 ovarian): 20400 nM
GI50 (SK-MEL-5 melanoma): 353 nM
TGI (SK-MEL-5 melanoma): 15000 nM
GI50 (U251 CNS): 394 nM
TGI (U251 CNS): 15400 nM
GI50 (MALME-3M melanoma): 323 nM
TGI (MALME-3M melanoma): 18800 nM
GI50 (OVCAR-4 ovarian): 14900 nM
TGI (OVCAR-4 ovarian): > 100000 nM
GI50 (MDA-MB-468 breast): 300 nM
TGI (MDA-MB-468 breast): 1030 nM
GI50 (MCF7 breast): 283 nM
TGI (MCF7 breast): 13200 nM
GI50 (SF-539 CNS): 286 nM
TGI (SF-539 CNS): 932 nM
GI50 (CCRF-CEM leukemia): 311 nM
TGI (CCRF-CEM leukemia): > 35100 nM
GI50 (MOLT-4 leukemia): 478 nM
TGI (MOLT-4 leukemia): 46200 nM
GI50 (HOP-92 NSCLC): 8530 nM
TGI (HOP-92 NSCLC): 43600 nM
GI50 (HT29 colon): 326 nM
TGI (HT29 colon): 2780 nM
